{
  "source": "paper PMC11904721",
  "about": "(ACS Omega, 2025)",
  "molecular_target": "S. aureus DNA gyrase (Staphylococcus aureus, UniProt P0A0K8+P20831)",
  "sequence (P20831 whole entry)": "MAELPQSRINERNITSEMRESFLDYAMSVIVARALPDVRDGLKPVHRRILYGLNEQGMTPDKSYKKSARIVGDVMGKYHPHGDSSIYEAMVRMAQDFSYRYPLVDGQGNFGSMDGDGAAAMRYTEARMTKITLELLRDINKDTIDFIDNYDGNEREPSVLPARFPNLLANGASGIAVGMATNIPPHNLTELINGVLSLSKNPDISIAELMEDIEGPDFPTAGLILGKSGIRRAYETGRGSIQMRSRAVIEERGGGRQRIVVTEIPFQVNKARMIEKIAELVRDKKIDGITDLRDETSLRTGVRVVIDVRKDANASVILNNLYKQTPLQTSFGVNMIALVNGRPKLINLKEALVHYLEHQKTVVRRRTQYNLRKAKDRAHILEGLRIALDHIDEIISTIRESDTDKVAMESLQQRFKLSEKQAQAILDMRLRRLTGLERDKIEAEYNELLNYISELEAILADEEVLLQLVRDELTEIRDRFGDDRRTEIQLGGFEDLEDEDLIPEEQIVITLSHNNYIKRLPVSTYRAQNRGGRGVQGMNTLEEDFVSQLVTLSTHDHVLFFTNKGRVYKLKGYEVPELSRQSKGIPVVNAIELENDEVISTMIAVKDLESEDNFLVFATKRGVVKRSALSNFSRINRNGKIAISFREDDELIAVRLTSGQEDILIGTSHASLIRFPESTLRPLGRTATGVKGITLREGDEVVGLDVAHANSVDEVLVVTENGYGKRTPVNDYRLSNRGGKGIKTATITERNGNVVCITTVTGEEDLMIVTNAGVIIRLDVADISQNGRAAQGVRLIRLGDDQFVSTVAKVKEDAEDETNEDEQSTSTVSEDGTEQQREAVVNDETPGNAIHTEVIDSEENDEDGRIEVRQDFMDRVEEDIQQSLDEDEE",
  "sequence (P0A0K8 2-644)": "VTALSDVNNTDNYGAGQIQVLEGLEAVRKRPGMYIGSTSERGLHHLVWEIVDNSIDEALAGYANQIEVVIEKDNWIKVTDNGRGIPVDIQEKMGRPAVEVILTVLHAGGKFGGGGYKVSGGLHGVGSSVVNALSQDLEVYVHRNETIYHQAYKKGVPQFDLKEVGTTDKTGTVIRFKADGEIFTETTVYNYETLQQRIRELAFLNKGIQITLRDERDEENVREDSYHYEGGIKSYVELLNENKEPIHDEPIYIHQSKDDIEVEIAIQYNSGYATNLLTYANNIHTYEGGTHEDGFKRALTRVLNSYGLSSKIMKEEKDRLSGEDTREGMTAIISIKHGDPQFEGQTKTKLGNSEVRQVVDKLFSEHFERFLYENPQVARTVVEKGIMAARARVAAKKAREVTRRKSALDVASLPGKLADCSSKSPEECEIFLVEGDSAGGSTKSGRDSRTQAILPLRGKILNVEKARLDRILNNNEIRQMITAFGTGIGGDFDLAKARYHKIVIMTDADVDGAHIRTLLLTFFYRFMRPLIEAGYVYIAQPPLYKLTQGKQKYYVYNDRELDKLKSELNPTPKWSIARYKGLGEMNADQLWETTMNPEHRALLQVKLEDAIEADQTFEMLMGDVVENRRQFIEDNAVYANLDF",
  "test": "DNA gyrase supercoiling inhibition assay",
  "assay_type": "biochemical",
  "settings": "read-out: IC50(μM) (mean ± SEM) / S. aureusDNA gyrase supercoiling",
  "data": [
    {"smiles": "CCOC(=O)c1c(-n2cnnn2)sc2c1SC1N(c3ccccc3)C(=O)c3ccccc3N21", "note": "(centres unmarked) [compound 5, Ethyl 5-Oxo-6-phenyl-9-(1H-tetrazol-1-yl)-6,6a-dihydro-5H-thieno[2′,3′:4,5]thiazolo[3,2-a]quinazoline-8-carboxylate]", "values": [
      {"measurement": "IC50", "result": "7.13 ± 0.28", "unit": "µM"}
    ]},
    {"smiles": "CS(=O)(=O)N1SCC(=O)c2c1sc1c2SC2N(c3ccccc3)C(=O)c3ccccc3N12", "note": "(centres unmarked) [compound 4, 11-(methylsulfonyl)-6-phenyl-6,6a-dihydro-5H,9H-[1,2]thiazino[4″,3”:4′,5′]thieno[2′,3′:4,5]thiazolo[3,2-a]quinazoline-5,8(11H)-dione]", "values": [
      {"measurement": "IC50", "result": "11.7 ± 0.47", "unit": "µM"}
    ]}
  ]
}
